From US10426169B2 (priority 2011, dated 2019)

System: not listed separately
Test: physchem
Conditions: pH 2.7
Text: The LC-MS determination in the acidic range is effected at pH 2.7 with 0.1% aqueous formic acid and acetonitrile (contains 0.1% formic acid) as eluents; linear gradient from 10% acetonitrile to 95% acetonitrile. • ^[b] The LC-MS determination in the neutral range is effected at pH 7.8 using 0.001 molar aqueous ammonium hydrogencarbonate solution and acetonitrile as eluents; linear gradient from 10% acetonitrile to 95% acetonitrile.
The calibration is effected with unbranched alkan-2-ones (having 3 to 16 carbon atoms) with known log P values (log P values determined on the basis of the retention times by linear interpolation between two successive alkanones).
Work on `COC(C)(OC)C(CC(O)c1ccccc1OCC#C[Si](C)(C)C)=NO` (stereo not drawn) [1-hydroxyl-4,4-dimethoxy-1-(2-{[3-(trimethylsilyl)prop-2-yn-1-yl]oxy}phenyl)pentan-3-one oxime] yielded a chromatographic logP of 3.19. Molecule `CC(C)=NOCC(=O)N1CCC(c2nc(-c3cc(-c4ccccc4C=O)on3)cs2)CC1` [I-8, 2-{3-[2-(1-{[(Propan-2-ylideneamino)oxy]acetyl}piperidin-4-yl)-1,3-thiazol-4-yl]-1,2-oxazol-5-yl}benzaldehyde] has a chromatographic logP of 2.45. `CC(C)=NOCC(=O)N1CCC(c2nc(C3=NOC(c4ccccc4OS(C)(=O)=O)C3)cs2)CC1` (stereo not drawn) [I-12, 2-{3-[2-(1-{[(Propan-2-ylideneamino)oxy]acetyl}piperidin-4-yl)-1,3-thiazol-4-yl]-4,5-dihydro-1,2-oxazol-5-yl}phenyl methanesulphonate] gave a chromatographic logP of 2.36. With `C#CCOc1ccccc1C1CC(C(C)=O)=NO1` (stereo not drawn) [VIIIa-a-81, 1-[5-(2-{[prop-2-yn-1-yl]oxy}phenyl)-4,5-dihydro-1,2-oxazol-3-yl]ethanone] the chromatographic logP was 4.41. With `CS(=O)(=O)Oc1cc(C(F)(F)F)ccc1C1CC(C(=O)CCl)=NO1` (stereo not drawn) [VIIa-a-143, 2-[3-(Chloroacetyl)-4,5-dihydro-1,2-oxazol-5-yl]-5-(trifluoromethyl)phenyl methanesulphonate] the chromatographic logP was 3.25. `CN(C)CC(=O)N1CCC(c2nc(C3=NOC(c4ccccc4OS(C)(=O)=O)C3)cs2)CC1` (stereo not drawn) [X-1, 2-(3-{2-[1-(N,N-Dimethylglycyl)piperidin-4-yl]-1,3-thiazol-4-yl}-4,5-dihydro-1,2-oxazol-5-yl)phenyl methanesulphonate] gave a chromatographic logP of 1.48. For `CC(C)(C)[Si](C)(C)OCC(=O)N1CCC(c2nc(C3=NOC(c4ccccc4OS(C)(=O)=O)C3)cs2)CC1` (stereo not drawn) [X-2, 2-(3-{2-[1-({[tert-butyl(dimethyl)silyl]oxy}acetyl)piperidin-4-yl]-1,3-thiazol-4-yl}-4,5-dihydro-1,2-oxazol-5-yl)phenyl methanesulphonate], the chromatographic logP was 4.14. Work on `CC(=O)OCC(=O)N1CCC(c2nc(C3=NOC(c4ccccc4OS(C)(=O)=O)C3)cs2)CC1` (stereo not drawn) [X-3, 2-{4-[4-(5-{2-[(Methylsulphonyl)oxy]phenyl}-4,5-dihydro-1,2-oxazol-3-yl)-1,3-thiazol-2-yl]piperidin-1-yl}-2-oxoethyl acetate] yielded a chromatographic logP of 2.18. Molecule `CC(C)(C)OC(=O)N1CCC(c2nc(C3=NOC(c4ccc(C(F)(F)F)cc4OS(C)(=O)=O)C3)cs2)CC1` (stereo not drawn) [XVI-143, tert-Butyl 4-[4-(5-{2-[(methylsulphonyl)oxy]-4-(trifluoromethyl)phenyl}-4,5-dihydro-1,2-oxazol-3-yl)-1,3-thiazol-2-yl]piperidine-1-carboxylate] has a chromatographic logP of 4.36. In the case of `CS(=O)(=O)Oc1ccccc1C1CC(c2csc(C3CCN(C(=O)CO)CC3)n2)=NO1` (stereo not drawn) [XXVIIa-142, 2-{3-[2-(1-glycoloylpiperidin-4-yl)-1,3-thiazol-4-yl]-4,5-dihydro-1,2-oxazol-5-yl}phenyl methanesulphonate], the chromatographic logP is reported as 1.88. `CS(=O)(=O)Oc1ccccc1C1CC(c2csc(C3CCN(C(=O)CCl)CC3)n2)=NO1` (stereo not drawn) [Xc-a-142, 2-(3-{2-[1-(Chloroacetyl)piperidin-4-yl]-1,3-thiazol-4-yl}-4,5-dihydro-1,2-oxazol-5-yl)phenyl methanesulphonate] showed a chromatographic logP of 2.42.

System: Phytophthora infestans
Test: not given
Assay type: in vivo, Phytophthora infestans on young tomato plants
Conditions: protective, tomato plants, active ingredient concentration 100 ppm, evaluation 7 days after inoculation; 0% = control, 100% = no infection
For `CC(C)=NOCC(=O)N1CCC(c2nc(-c3cc(-c4ccccc4C=O)on3)cs2)CC1` [I-8, 2-{3-[2-(1-{[(Propan-2-ylideneamino)oxy]acetyl}piperidin-4-yl)-1,3-thiazol-4-yl]-1,2-oxazol-5-yl}benzaldehyde], the Eff. % was 89%.
